PMC5578999, “Novel quinolone chalcones targeting colchicine-binding pocket kill multidrug-resistant cancer cells by inhibiting tubulin activity and MRP1 function” (Scientific Reports, 2017)
Values joined by “and” are separate entries in the source; they are usually repeats but may differ in a detail not shown here. Equal values may be shown once.

Assays:
Assay type in all cases: cell-based
centrosomes = assay: Distance between two centrosomes by fluorescence microscopy; details: 3.0 μmol/L CTR-17
Description: and Lee, 2008). The reversibility of drug effects was carried out as follow: He La cells treated
with CTR-17 or CTR-20 for 12 hours were w ashed twice with 1 × PBS and then releas ed into
pre-w armed complet emedium . Subsequentl y, c ell s were h arvested at scheduled time points to
ex amine their DNA profi les /cell c ycle positions by flow c ytometr y.
Immunofluorescencestai ning was car ried out as d escribed previousl y (Santi and Lee,
2011).Photograph y was carri ed out with a Carl Zeiss 510 Meta l aser s cann ing microscop e or an
Axioscope,and images were captur ed with LSM image examiner (Carl Zeiss, North York, ON,
Canada). For immunostaining , a background cont rol (without secondar y antibody) and bleed-
through controls (cells labeled with each fluorophore separatel y) were used to avoid inaccur ate
interpretation of dat a due to artifacts. A minimum of 10 fields per coverslip and 200 cells for
quantitative cell anal ysis were captur ed. Each ex periment was r epeat ed at l east twice. Western
blotting was carried out as described previousl y (Santi and Lee, 2010).
Molecular Operating Environment (MOE) (Chemi cal Computing Group Inc, Montreal, […]
The best docking pose was determined based on t he minimum free energy for binding. […]
hours or 24hours . The m itotic index was determined b y fluorescence micro scop y with counting […]

MOLT-4 = assay: NCI-60 SRB screen
Source text: (§1) Supplementary Table S 3: Antitumor activity of CTR -17 and CTR -20, alone or in combination […]
(§2) a Tax: paclitaxel. b mg per kg of bod y wei ght. c unit is mm 3.
(§3) Supplementary Figure l egend
(§4) 10μ M of CTR-20 was used to examine the drug’s efficac y against the NC I-60 cancer cell li nes including: six leukemia cell lines, nine non- small cell lung cancer cell lines, seven color ect al cancer cell lines, six CNS cancer cell lines, nine melanoma cell lines, seven ovari an can cer cell lines, seven ren al can cer cell lines, two prostate cancer cell lines and six breast cancer cell lines. The scr eenin g was car r ied out b y the US National Cancer Institute (NC I) us i n g a sulforhodamine B (SRB) colorimetric assay. […]
(§5) out by the NC I using five different doses of CTR -20.

SNB-75 = assay: NCI-60 SRB screen
Source text: as §1, §2, §3, §4, §5

HCT-116 = assay: NCI-60 SRB screen
Source text: as §1, §2, §3, §4, §5

COLO 205 = assay: NCI-60 SRB screen; details: 1.00E-5 Molar
Source text: as §1, §2, §3, §4, §5

ACHN = assay: NCI-60 SRB screen; details: 1.00E-5 Molar
Source text: as §1, §2, §3, §4, §5

HS 578T = assay: NCI-60 SRB screen
Source text: as §1, §2, §3, §4, §5

[1] = Homo sapiens, read-out: LC50 (the source's name)

For COc1ccccc1C(=O)/C=C/c1cc2ccccc2[nH]c1=O [CTR-17, (E)-3-(3-(2-Methoxyphenyl)-3-oxoprop-1-enyl)quinolin-2(1H)-one], the distance between two centrosomes (centrosomes) was 4.83 ± 0.36 µm and the “distance between two centrosomes shorter than sham control” value (centrosomes) was ~ 35% and 35%.
Work on COc1ccc2[nH]c(=O)c(/C=C/C(=O)c3ccccc3OC)cc2c1 [CTR-20, (E)-6-Methoxy-3-(3-(2-methoxyphenyl)-3-oxoprop-1-enyl) quinolin-2(1H)-one] yielded a Log10GI50 (MOLT-4) of -6.38 Molar, a Log10LC50 (MOLT-4) greater than -4.00 Molar and a Log10TGI (MOLT-4) of -4.57 Molar. The TGI (MOLT-4) was 2.71E-5 Molar, the “Growth Percent” value (MOLT-4; 1.00E-5 Molar) was 10.88% and the GI50 (MOLT-4; Homo sapiens) was 421 nM. For the same compound, the CC50 (MOLT-4; [1]) was greater than 100000 nM, the “Percent Growth” value (MOLT-4; Log10 Concentration -4.0) was -12% and the “Percent Growth” value (MOLT-4; Log10 Concentration -5.0) was 9%. The “Percent Growth” value (MOLT-4; Log10 Concentration -6.0) was 21%, the “Percent Growth” value (MOLT-4; Log10 Concentration -7.0) was 98% and the “Percent Growth” value (MOLT-4; Log10 Concentration -8.0) was 97%. The Log10GI50 (SNB-75) was -6.33 Molar, the Log10LC50 (SNB-75) was -4.42 Molar and the Log10TGI (SNB-75) was -4.85 Molar. For the same compound, the TGI (SNB-75) was 1.42E-5 Molar, the “Growth Percent” value (SNB-75; 1.00E-5 Molar) was -11.48% and the GI50 (SNB-75; Homo sapiens) was 470 nM. The CC50 (SNB-75; [1]) was 37800 nM, the “Percent Growth” value (SNB-75; Log10 Concentration -4.0) was -100% and the “Percent Growth” value (SNB-75; Log10 Concentration -5.0) was 18%. For the same compound, the “Percent Growth” value (SNB-75; Log10 Concentration -6.0) was 34%, the “Percent Growth” value (SNB-75; Log10 Concentration -7.0) was 82% and the “Percent Growth” value (SNB-75; Log10 Concentration -8.0) was 86%. It also gave a Log10GI50 (HCT-116) of -6.46 Molar, a Log10LC50 (HCT-116) of -5.26 Molar and a Log10TGI (HCT-116) of -5.83 Molar. For the same compound, the TGI (HCT-116) was 1.48E-6 Molar, the “Growth Percent” value (HCT-116; 1.00E-5 Molar) was 16.04% and the GI50 (HCT-116; Homo sapiens) was 348 nM. The CC50 (HCT-116; [1]) was 5480 nM, the “Percent Growth” value (HCT-116; Log10 Concentration -4.0) was -96% and the “Percent Growth” value (HCT-116; Log10 Concentration -5.0) was -73%. For the same compound, the “Percent Growth” value (HCT-116; Log10 Concentration -6.0) was 15%, the “Percent Growth” value (HCT-116; Log10 Concentration -7.0) was 92% and the “Percent Growth” value (HCT-116; Log10 Concentration -8.0) was 94%. For the same compound, the “Growth Percent” value (COLO 205) was 20.45%, the “Growth Percent” value (ACHN) was 38.84% and the Log10LC50 (HS 578T) was greater than -4.00 Molar. For the same compound, the Log10TGI (HS 578T) was -4.08 Molar, the TGI (HS 578T) was 8.38E-5 Molar and the “Growth Percent” value (HS 578T; 1.00E-5 Molar) was 8.33%. The CC50 (HS 578T; [1]) was greater than 100000 nM, the “Percent Growth” value (HS 578T; Log10 Concentration -4.0) was -8% and the “Percent Growth” value (HS 578T; Log10 Concentration -5.0) was 91%. The “Percent Growth” value (HS 578T; Log10 Concentration -6.0) was 37%, the “Percent Growth” value (HS 578T; Log10 Concentration -7.0) was 98% and the “Percent Growth” value (HS 578T; Log10 Concentration -8.0) was 96%.
